Results taken from patent publication EP4656642A1, “ESTROGEN RECEPTOR PROTEOLYSIS TARGETING CHIMERA COMPOUND AND USE THEREOF” (GAN & LEE PHARM CO., LTD, priority 2023, dated 2024).

How the values were obtained:
Format in all cases: cell-based
[1] = test system: T-47D cells; test: Inhibition of cell proliferation in T-47D cells (CCK-8, 6 days); conditions: 6 days of treatment
Excerpt: Test Example 2: Inhibitory effect of the PROTAC compounds provided in the present disclosure on cell proliferation in T-47D cells (source ATCC)
The complete medium required for T-47D cells was 1640 ( ATCC, Product number: A10491-01) basal medium containing 10% fetal bovine serum. T-47D cells were inoculated in 96-well plates at a density of 3,000 cells/well, and different concentrations of the PROTAC compounds 1-55 provided in the examples of the present disclosure and a positive control sample ARV-471 (source: Innochem) were prepared to treat cells, and the cells were treated at 37°C in a cell culture incubator with 5% CO2 for 6 days. Cell viability was detected using a CCK-8 kit (Beyotime, Product number: C0040) according to the manufacturer's instructions. […] Table 2 IC50 values for inhibition of the proliferation of T-47D cells by the PROTAC compounds provided by the present disclosure and the positive control sample

[2] = test system: MCF-7 cells; test: Inhibition of cell proliferation of MCF-7 cells (CCK-8, 9 days)
Summary of the method: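 MCF-7 cells seeded at 800 cells/well in DMEM with 10% FBS, exposed to a range of compound concentrations for 9 days at 37°C, 5% CO2. Viability read by CCK-8; IC50 derived for proliferation inhibition.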

[3] = molecular target: T1, ERα (Homo sapiens, UniProt P03372); test: Degradation of ERα in MCF-7 cells (immunoblotting, 4 h)
T1 sequence (P03372 1-595): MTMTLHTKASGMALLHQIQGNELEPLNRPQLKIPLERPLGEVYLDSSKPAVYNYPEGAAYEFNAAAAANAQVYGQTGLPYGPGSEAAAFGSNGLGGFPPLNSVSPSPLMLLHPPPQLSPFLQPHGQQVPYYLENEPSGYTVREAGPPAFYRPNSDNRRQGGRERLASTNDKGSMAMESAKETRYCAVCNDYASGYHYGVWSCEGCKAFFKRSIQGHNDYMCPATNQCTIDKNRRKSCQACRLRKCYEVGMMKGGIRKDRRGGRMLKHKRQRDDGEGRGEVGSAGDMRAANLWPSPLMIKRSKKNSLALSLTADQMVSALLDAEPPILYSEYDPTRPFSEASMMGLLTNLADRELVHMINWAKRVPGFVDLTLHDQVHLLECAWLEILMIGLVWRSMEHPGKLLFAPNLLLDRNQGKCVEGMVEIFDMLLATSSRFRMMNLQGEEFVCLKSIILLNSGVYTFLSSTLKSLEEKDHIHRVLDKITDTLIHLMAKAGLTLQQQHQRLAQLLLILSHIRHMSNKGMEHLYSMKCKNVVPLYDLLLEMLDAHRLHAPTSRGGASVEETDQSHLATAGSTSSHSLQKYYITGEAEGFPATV
Summary of the method: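 MCF-7 cells treated 4 h at 37°C with compounds at 0.15-1000nM final. ERα in lysates measured by immunoblot, with band grayscale normalized to an internal reference protein. Degradation rate calculated against DMSO-treated control.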

[4] = molecular target: T1, ERα; test: Degradation of ERα in T-47D cells (immunoblotting, 4 h); parameters: host or cells: T-47D
Summary of the method: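 T-47D cells were treated with compound (final 0.15-1000 nM, DMSO) for 4 h at 37°C, 5% CO2. Cells were lysed in RIPA buffer with protease inhibitor, and ERα protein in the cleared lysate was measured by immunoblotting.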

[5] = treated for 9 days, CCK-8 kit (Table 6)
[6] = 9 days of treatment, CCK-8, Table 5

| SMILES | IC50 ([1]; Table 3) [nM] | IC50 [2, 5] [nM] | Degradation rate (%) of ERα in MCF-7 cells ([3]; 1nM compound) [%] | Degradation rate (%) of ERα in MCF-7 cells ([3]; 10nM compound) [%] | Degradation rate (%) of ERα in T-47D cells ([4]; 1nM compound) [%] | Degradation rate (%) of ERα in T-47D cells ([4]; 10nM compound) [%] | IC50 ([1]; Table 2) [nM] | IC50 [2, 6] [nM] |
| --- | --- | --- | --- | --- | --- | --- | --- | --- |
| O=C1CCC(N2C(=O)c3cc4c(cc3C2=O)OC2(CC4)CCN(CC3CCC4(CC3)CCN(c3ccc([C@@H]5c6ccc(O)cc6CC[C@@H]5c5ccccc5)cc3)CC4)CC2)C(=O)N1 (stereo partly shown) [A43] | 41 | 62 | -2 | -8 | 7 | 26 |  |  |
| O=C1CCC(N2Cc3ccc4c(c3C2=O)OC2(CC4)CCN(C3CC4(CCN(c5ccc([C@@H]6c7ccc(O)cc7CC[C@@H]6c6ccccc6)cc5)CC4)C3)CC2)C(=O)N1 (stereo partly shown) [A45] | 79 | 160 | -3 | -15 | -6 | -28 |  |  |
| O=C1CCC(N2Cc3cc4c(cc3C2=O)CCC2(CN(C(=O)C3CCC5(CC3)CN(c3ccc([C@@H]6c7ccc(O)cc7CC[C@@H]6c6ccccc6)cc3)C5)C2)O4)C(=O)N1 (stereo partly shown) [A46] | 10.6 | 1250 | -22 | -26 | 7 | 33 |  |  |
| O=C1CCC(N2Cc3cc4c(cc3C2=O)OC2(CC4)CN(C(=O)C3CCC4(CC3)CN(c3ccc([C@@H]5c6ccc(O)cc6CC[C@@H]5c5ccccc5)cc3)C4)C2)C(=O)N1 (stereo partly shown) [A47] | 11.7 | 871 | 9 | 14 | -10 | 37 |  |  |
| O=C1CCC(N2Cc3cc4c(cc3C2=O)CCC2(CN(C(=O)C3CC5(CCN(c6ccc([C@@H]7c8ccc(O)cc8CC[C@@H]7c7ccccc7)cc6)CC5)C3)C2)O4)C(=O)N1 (stereo partly shown) [A48] | 12.3 | 7440 | 4 | 11 | -37 | 23 |  |  |
| O=C1CCC(N2Cc3cc4c(cc3C2=O)OC2(CC4)CN(C(=O)C3CC4(CCN(c5ccc([C@@H]6c7ccc(O)cc7CC[C@@H]6c6ccccc6)cc5)CC4)C3)C2)C(=O)N1 (stereo partly shown) [A49] | 9.63 | 11100 | 9 | 37 | 17 | 48 |  |  |
| O=C1CCC(N2Cc3cc4c(cc3C2=O)CCC2(CN(C(=O)C3CCN(c5ccc([C@@H]6c7ccc(O)cc7CC[C@@H]6c6ccccc6)cc5)CC3)C2)O4)C(=O)N1 (stereo partly shown) [A50] | 4.16 | 4080 | 11 | 27 | 24 | 53 |  |  |
| O=C1CCC(N2Cc3c(ccc4c3OCC43CCN(C4CC5(CCC6(CCN(c7ccc([C@@H]8c9ccc(O)cc9CC[C@@H]8c8ccccc8)cc7)CC6)CC5)C4)CC3)C2=O)C(=O)N1 (stereo partly shown) [B23] | 10.2 | 417 | 17 | 40 |  |  |  |  |
| O=C1CCC(N2Cc3cc4c(cc3C2=O)OCC2(CCN(C3CC5(CCN(c6ccc([C@@H]7c8ccc(O)cc8CC[C@@H]7c7ccccc7)cc6)CC5)C3)CC2)O4)C(=O)N1 (stereo partly shown) [M11] |  |  |  |  | 17 | 56 | 1 | 20 |
| O=C1CCC(N2Cc3cc4c(cc3C2=O)CCC2(CN(C3CC5(CCN(c6ccc([C@@H]7c8ccc(O)cc8CC[C@@H]7c7ccccc7)cc6)CC5)C3)C2)O4)C(=O)N1 (stereo partly shown) [M13] |  |  |  |  | 13 | 27 | 1.6 | 70 |
| O=C1CCC(N2C(=O)c3cc4c(cc3C2=O)OC2(CC4)CN(CC3CCC4(CC3)CN(c3ccc([C@@H]5c6ccc(O)cc6CC[C@@H]5c5ccccc5)cc3)C4)C2)C(=O)N1 (stereo partly shown) [M14] | 30 | 23 |  |  | -29 | -17 |  |  |
